This is an account of results in PubChem BioAssay AID1996.

Values after ≈ are worked out from the molar mass of the structure shown.

For the series the following is noted: buffer; pH 7.4; 200.0 µM.
`COc1ccc(CC(=O)NCc2ccc(F)cc2)cc1S(=O)(=O)N1CCOCC1` registered a kinetic solubility greater than 63.4 µg/mL.

The compound `CC(=O)c1sc(NC(=O)c2cccs2)nc1C` yielded a kinetic solubility of 2 µg/mL (≈ 7.51 µM).

`Cc1ccc(NC(=S)N2CCC(NC(=O)c3ccccc3)CC2)cc1` returned a solubility (kinetic) of 8.8 µg/mL (≈ 24.9 µM). Compared with the last compound, the solubility kinetic is about 4.4-fold higher.

`CN(CCC#N)C(=S)Nc1ccc(F)cc1` had a solubility (kinetic) of 32.8 µg/mL (≈ 138 µM).

Take `COc1c(C)cc(C(=O)C2CCCN(C(=O)/C=C/c3ccccn3)C2)cc1C` (configuration not stated): the solubility (kinetic) was 40.6 µg/mL (≈ 107 µM).

`CCCc1cnc(N2CCN(C(=S)NC)CC2)nc1` returned a kinetic solubility of 38.7 µg/mL (≈ 139 µM). The solubility kinetic values of the last two compounds are within 1.5-fold of each other.

In turn, `Cc1cccc(NC(=O)C2CC2c2ccccc2)c1C` (configuration not stated) displayed a kinetic solubility of 3.8 µg/mL (≈ 14.3 µM).

The compound `Fc1ccccc1CN1CCN(c2ccc(Cl)cc2)CC1` came in with a kinetic solubility of 1 µg/mL (≈ 3.28 µM).

On to `Cl.Cn1cccc1CNCC(O)c1ccccc1` (configuration not stated), for which the kinetic solubility is greater than 40 µg/mL.

`Brc1ccccc1OCCCCN1CCCCC1` displayed a solubility (kinetic) of 39.1 µg/mL (≈ 125 µM).

As for `O=C(CCCc1ccccc1)N1CCN(C2CCCCC2)CC1`, the kinetic solubility was 46.6 µg/mL (≈ 148 µM).

The compound `CN1CCC(N(C)C(=O)c2ccccc2F)CC1.Cl` registered a kinetic solubility of 42.9 µg/mL.

For `CC1CCC(NC(=O)c2cc3c(s2)CCCC3)CC1` (configuration not stated), the kinetic solubility is 2.8 µg/mL (≈ 10.1 µM). Compared with the last compound, the solubility kinetic is about 15-fold lower.

In turn, `CC(C(=O)Nc1ccc(Cl)cc1)N(C)Cc1cccs1` (configuration not stated) returned a solubility (kinetic) of 13.4 µg/mL (≈ 43.4 µM).

With `NS(=O)(=O)c1cccc(NC(=O)CSc2nnc(C3CC3)n2-c2ccccc2)c1`, the solubility (kinetic) was greater than 64.4 µg/mL.

In turn, `COc1ccc2cc(S(=O)(=O)N3CCCC3)ccc2c1` yielded a solubility (kinetic) of 3.5 µg/mL (≈ 12 µM).

`COc1ccc(Cl)cc1NC(=O)COC(=O)c1cc(C)oc1C`: the solubility (kinetic) is 4.2 µg/mL (≈ 12.4 µM).

For `O=c1ccc2ccccc2n1Cc1cccc(F)c1`, the kinetic solubility was greater than 38 µg/mL.

`CN1C(C(=O)c2ccccc2)=C(N)c2ccccc2S1(=O)=O` had a solubility (kinetic) of 40.9 µg/mL (≈ 130 µM).

The compound `O=C(O)c1cc(S(=O)(=O)N2CCCCC2)ccc1N1CCOCC1` showed a kinetic solubility greater than 53.2 µg/mL.

On to `O=C1SCCC1NS(=O)(=O)c1ccc([N+](=O)[O-])cc1` (configuration not stated), for which the solubility (kinetic) amounted to 38.3 µg/mL (≈ 127 µM).

`C=CCn1cnnc1SCC(=O)N(C1CCCCC1)C1CCS(=O)(=O)C1` (configuration not stated) came in with a kinetic solubility greater than 59.8 µg/mL.

Turning to `Cc1nn(C)c(C)c1NC(=O)COc1ccccc1C#N`, the solubility (kinetic) was greater than 42.6 µg/mL.

As for `Cc1ccc(CNc2nc(C)c(C(=O)N(C)C)s2)cc1`, the kinetic solubility is greater than 43.4 µg/mL.

Consider `CCN(C(=O)Cn1c(Cl)nc2c1c(=O)n(C)c(=O)n2C)C1CCCCC1`, for which the solubility (kinetic) is greater than 57.3 µg/mL.

As for `CCc1ccc(N2CC(C(=O)N3CCCCCC3)CC2=O)cc1` (configuration not stated), the solubility (kinetic) is greater than 47.2 µg/mL.

`Cl.O=C(CCl)N1CCN(CC(=O)N2CCCC2)CC1` came in with a kinetic solubility greater than 46.5 µg/mL.

Compound `CCCC(=O)O/N=C(\c1ccccc1)c1ccncc1` came in with a solubility (kinetic) of 38.4 µg/mL (≈ 143 µM).

The compound `O=C(NC(=S)NCc1ccco1)c1ccc([N+](=O)[O-])cc1` returned a solubility (kinetic) of 4.6 µg/mL (≈ 15.1 µM).

Regarding `CN1C(=O)NC(c2cccc([N+](=O)[O-])c2)C2=C1CCCC2=O` (configuration not stated), the kinetic solubility was greater than 45.2 µg/mL.

Take `CN(CC(=O)Nc1ccc(F)cc1[N+](=O)[O-])Cc1ccccc1`: the solubility (kinetic) worked out at 1 µg/mL (≈ 3.15 µM).

Compound `COc1ccccc1Cc1nc(-c2ccncc2)no1` showed a kinetic solubility of 33.4 µg/mL (≈ 125 µM). This solubility kinetic is about 33-fold higher than that of the compound before.

In the case of `CCOc1ccccc1NS(=O)(=O)c1csc(C(N)=O)c1`, the kinetic solubility was greater than 49 µg/mL.

Take `O=C(O)Cn1nc(-c2ccccc2)cc1-c1ccccc1`: the solubility (kinetic) is greater than 41.7 µg/mL.

For `C=CCNC(=S)N/N=C(\C)c1cccc(NC(C)=O)c1`, the kinetic solubility was greater than 43.6 µg/mL.

Compound `CCOc1cc2c(cc1/C=C1/NC(=O)N(CC(=O)OC)C1=O)OCO2` showed a solubility (kinetic) of 2.9 µg/mL (≈ 8.33 µM).

As for `COc1cc(NC(=O)CN2CCCCCC2)cc(OC)c1`, the solubility (kinetic) was greater than 43.9 µg/mL.

`COc1cccc(OC)c1C(=O)Nc1nc(-c2ccccc2)cs1` came in with a solubility (kinetic) of 1.6 µg/mL (≈ 4.7 µM).

With `O=C1[C@@H]2[C@H]3CC[C@H](C3)[C@@H]2C(=O)N1O`, the kinetic solubility is 27 µg/mL (≈ 149 µM). This solubility kinetic lies about 17-fold higher than the previous one.

In turn, `CN1CCCN(C(=O)c2ccc(Cl)s2)CC1` registered a solubility (kinetic) greater than 38.8 µg/mL.

Compound `CC1CN(S(=O)(=O)c2cccc(C(=O)NCc3ccccn3)c2)CC(C)O1` (configuration not stated) returned a solubility (kinetic) greater than 58.4 µg/mL.

In turn, `COc1cccc(Nc2nc(-c3ccccc3)nc3ccccc23)c1` showed a kinetic solubility of 3.2 µg/mL (≈ 9.77 µM).

The compound `COc1ccc(CCNC(=O)COC(=O)c2cc(Cl)nc(Cl)c2)cc1` came in with a kinetic solubility of 23.6 µg/mL (≈ 61.6 µM).

`CCc1c(C)nc(SCC(=O)N2CCCCC2CC)[nH]c1=O` (configuration not stated) came in with a kinetic solubility of 44.6 µg/mL (≈ 138 µM).

`O=C(NNC1=NS(=O)(=O)c2ccccc21)c1ccccc1` yielded a kinetic solubility greater than 45.2 µg/mL.

The compound `CN1C(=O)c2ccc(C(=O)Nc3ccc4c(c3)OCO4)cc2C1=O` registered a solubility (kinetic) of 0.7 µg/mL (≈ 2.16 µM).

`COc1ccc(-c2nc3ncccc3o2)cc1NC(=O)c1ccco1` registered a solubility (kinetic) of 2.5 µg/mL (≈ 7.46 µM). This solubility kinetic lies about 3.6-fold higher than the previous one.

`CC(=O)Nc1ccc(S(=O)(=O)Nc2cccc3cccnc23)cc1` gave a solubility (kinetic) greater than 51.2 µg/mL.

The compound `Cc1ccc(-c2cn3cccnc3n2)cc1` had a solubility (kinetic) greater than 31.4 µg/mL.

In turn, `COc1cccc(C(=O)N2CCOCC2)c1OC` came in with a kinetic solubility greater than 37.7 µg/mL.

In turn, `N/C(=N\OC(=O)c1ccc2c(c1)OCO2)c1ccncc1` had a kinetic solubility greater than 42.8 µg/mL.

For `COc1ccccc1CCC(=O)Nc1ncc(C)s1`, the solubility (kinetic) turned out to be 2.5 µg/mL (≈ 9.05 µM).
